Results reported in ChEMBL document CHEMBL1938312, “Design and combinatorial synthesis of a novel kinase-focused library using click chemistry-based fragment assembly” (Bioorg Med Chem Lett, 2012).
The source made the active and inactive calls. The rule behind the calls is not given here.

Key:
[1] = target: T1, Receptor-type tyrosine-protein kinase FLT3 (Homo sapiens, UniProt P36888); assay: Inhibition of FLT3 by colorimetric analysis
T1 sequence (P36888 whole entry): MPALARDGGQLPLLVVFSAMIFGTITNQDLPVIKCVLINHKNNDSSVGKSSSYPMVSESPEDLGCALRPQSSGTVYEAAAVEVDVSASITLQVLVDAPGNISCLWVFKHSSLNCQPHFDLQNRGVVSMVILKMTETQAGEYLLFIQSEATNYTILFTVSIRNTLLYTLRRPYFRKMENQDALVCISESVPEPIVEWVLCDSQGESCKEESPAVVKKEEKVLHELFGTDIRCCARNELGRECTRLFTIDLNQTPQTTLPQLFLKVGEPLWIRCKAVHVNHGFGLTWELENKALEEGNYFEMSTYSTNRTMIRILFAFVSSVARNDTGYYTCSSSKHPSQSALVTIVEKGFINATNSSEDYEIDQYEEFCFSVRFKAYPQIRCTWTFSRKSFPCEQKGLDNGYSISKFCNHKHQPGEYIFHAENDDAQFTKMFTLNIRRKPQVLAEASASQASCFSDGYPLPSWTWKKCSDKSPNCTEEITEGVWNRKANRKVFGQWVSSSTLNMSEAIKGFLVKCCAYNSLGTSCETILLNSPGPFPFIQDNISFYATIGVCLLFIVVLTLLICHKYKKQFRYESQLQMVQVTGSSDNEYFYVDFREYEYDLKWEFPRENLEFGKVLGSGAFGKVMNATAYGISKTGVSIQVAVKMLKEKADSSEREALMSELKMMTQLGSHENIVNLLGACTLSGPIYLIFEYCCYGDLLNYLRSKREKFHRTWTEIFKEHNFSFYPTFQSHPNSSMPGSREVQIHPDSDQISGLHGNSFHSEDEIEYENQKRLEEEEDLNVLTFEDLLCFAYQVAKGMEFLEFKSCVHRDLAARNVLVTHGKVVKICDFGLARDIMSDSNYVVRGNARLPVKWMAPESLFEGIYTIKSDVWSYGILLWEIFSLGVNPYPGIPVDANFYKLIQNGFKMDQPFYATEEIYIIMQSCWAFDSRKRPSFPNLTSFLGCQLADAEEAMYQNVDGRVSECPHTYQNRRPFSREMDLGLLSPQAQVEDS

[2] = target: Ribosomal protein S6 kinase beta-1 (Homo sapiens) (UniProt P23443); assay: Inhibition of p70S6K at 10 uM by colorimetric analysis
Sequence of Ribosomal protein S6 kinase beta-1 (Homo sapiens) (P23443 whole entry, looked up): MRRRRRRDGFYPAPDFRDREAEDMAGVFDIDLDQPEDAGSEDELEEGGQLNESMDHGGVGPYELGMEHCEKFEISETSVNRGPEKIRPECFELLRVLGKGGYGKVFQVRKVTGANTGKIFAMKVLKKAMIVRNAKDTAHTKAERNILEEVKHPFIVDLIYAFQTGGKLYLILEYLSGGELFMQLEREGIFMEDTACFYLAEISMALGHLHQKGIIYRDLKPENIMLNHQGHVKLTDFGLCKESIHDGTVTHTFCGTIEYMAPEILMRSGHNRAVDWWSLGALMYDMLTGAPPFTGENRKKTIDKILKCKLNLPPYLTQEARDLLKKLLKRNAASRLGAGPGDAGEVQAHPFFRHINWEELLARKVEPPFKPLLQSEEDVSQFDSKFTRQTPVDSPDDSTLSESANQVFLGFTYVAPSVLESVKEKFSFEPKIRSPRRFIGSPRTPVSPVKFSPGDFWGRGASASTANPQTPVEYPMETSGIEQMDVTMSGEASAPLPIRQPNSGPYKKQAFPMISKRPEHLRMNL

[3] = target: T2, Serine/threonine-protein kinase 4 (Homo sapiens) (UniProt Q13043); assay: Inhibition of MST1 at 10 uM by colorimetric analysis
T2 sequence (whole entry): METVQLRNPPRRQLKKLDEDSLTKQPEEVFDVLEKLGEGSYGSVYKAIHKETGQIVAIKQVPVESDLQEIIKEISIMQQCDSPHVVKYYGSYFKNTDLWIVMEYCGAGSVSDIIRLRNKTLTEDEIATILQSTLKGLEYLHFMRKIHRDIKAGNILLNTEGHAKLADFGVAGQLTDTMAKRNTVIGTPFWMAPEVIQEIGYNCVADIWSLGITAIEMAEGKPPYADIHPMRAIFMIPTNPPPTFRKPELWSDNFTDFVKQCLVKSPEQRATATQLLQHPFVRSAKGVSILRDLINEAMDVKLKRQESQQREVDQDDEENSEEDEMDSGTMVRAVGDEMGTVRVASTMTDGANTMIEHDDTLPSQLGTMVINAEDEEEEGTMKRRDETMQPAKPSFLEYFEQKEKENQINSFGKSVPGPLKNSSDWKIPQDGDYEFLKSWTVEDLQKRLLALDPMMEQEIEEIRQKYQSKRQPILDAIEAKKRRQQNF

[4] = target: Tyrosine-protein kinase SYK (Homo sapiens) (UniProt P43405); assay: Inhibition of SYK at 10 uM by colorimetric analysis
[5] = target: Mitogen-activated protein kinase 14 (Homo sapiens) (UniProt Q16539); assay: Inhibition of p38alpha at 10 uM by colorimetric analysis
Sequence of Mitogen-activated protein kinase 14 (Homo sapiens) (Q16539 whole entry): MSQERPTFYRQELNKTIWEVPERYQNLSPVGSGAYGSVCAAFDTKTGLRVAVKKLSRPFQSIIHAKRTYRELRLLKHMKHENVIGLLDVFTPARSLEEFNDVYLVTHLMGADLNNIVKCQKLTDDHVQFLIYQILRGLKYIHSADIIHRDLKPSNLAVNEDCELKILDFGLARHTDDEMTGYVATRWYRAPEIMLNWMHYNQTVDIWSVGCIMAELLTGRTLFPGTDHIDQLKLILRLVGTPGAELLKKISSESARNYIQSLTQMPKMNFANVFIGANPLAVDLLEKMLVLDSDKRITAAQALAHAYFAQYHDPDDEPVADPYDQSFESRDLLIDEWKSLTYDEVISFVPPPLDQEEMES

[6] = target: Mitogen-activated protein kinase 1 (Homo sapiens) (UniProt P28482); assay: Inhibition of Erk2 at 10 uM by colorimetric analysis
Sequence of Mitogen-activated protein kinase 1 (Homo sapiens) (P28482 whole entry): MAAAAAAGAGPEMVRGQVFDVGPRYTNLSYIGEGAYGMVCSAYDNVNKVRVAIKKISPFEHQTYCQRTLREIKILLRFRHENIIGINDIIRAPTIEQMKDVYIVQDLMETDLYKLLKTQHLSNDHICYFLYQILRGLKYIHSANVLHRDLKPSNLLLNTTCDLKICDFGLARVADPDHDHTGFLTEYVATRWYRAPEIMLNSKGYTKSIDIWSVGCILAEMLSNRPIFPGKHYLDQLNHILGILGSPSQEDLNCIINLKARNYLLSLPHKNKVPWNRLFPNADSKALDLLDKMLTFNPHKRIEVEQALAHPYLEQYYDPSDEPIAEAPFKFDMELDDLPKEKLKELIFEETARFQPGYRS

[7] = target: 3-phosphoinositide-dependent protein kinase 1 (Homo sapiens) (UniProt O15530); assay: Inhibition of PDK1 at 10 uM by colorimetric analysis
Sequence of 3-phosphoinositide-dependent protein kinase 1 (Homo sapiens) (O15530 whole entry, looked up): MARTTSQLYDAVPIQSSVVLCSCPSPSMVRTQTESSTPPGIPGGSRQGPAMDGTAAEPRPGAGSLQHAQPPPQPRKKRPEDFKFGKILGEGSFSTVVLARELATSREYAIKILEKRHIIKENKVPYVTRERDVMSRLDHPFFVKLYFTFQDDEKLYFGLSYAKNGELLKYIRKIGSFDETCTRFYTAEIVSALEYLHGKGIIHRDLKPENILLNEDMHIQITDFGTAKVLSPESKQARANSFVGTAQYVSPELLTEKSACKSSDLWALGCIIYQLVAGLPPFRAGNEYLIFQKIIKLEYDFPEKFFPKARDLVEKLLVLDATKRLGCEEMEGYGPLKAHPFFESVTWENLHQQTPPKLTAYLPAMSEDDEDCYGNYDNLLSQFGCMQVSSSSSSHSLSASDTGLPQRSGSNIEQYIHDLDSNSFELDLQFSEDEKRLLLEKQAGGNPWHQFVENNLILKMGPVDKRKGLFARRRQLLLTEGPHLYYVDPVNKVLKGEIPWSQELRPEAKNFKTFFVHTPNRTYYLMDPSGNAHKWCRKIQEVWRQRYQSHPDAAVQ

[8] = target: T3, Serine/threonine-protein kinase Chk1 (Homo sapiens) (UniProt O14757); assay: Inhibition of CHK1 at 10 uM by colorimetric analysis
T3 sequence (whole entry): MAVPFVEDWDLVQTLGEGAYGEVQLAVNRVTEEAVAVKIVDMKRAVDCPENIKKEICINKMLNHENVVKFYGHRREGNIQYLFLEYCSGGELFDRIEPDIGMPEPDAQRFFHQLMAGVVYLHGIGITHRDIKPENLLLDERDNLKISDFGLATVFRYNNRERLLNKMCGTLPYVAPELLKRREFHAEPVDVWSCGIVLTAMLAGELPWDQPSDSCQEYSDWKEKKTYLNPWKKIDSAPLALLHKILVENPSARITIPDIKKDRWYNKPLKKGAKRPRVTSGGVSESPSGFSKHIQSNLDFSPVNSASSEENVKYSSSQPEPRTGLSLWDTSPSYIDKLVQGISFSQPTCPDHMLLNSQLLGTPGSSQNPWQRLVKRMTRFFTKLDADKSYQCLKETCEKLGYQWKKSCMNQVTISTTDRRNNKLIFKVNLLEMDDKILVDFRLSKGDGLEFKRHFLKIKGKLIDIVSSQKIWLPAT

[9] = target: Rho-associated protein kinase 1 (Homo sapiens) (UniProt Q13464); assay: Inhibition of ROCK1 at 10 uM by colorimetric analysis
Sequence of Rho-associated protein kinase 1 (Homo sapiens) (Q13464 2-1354 limits assumed): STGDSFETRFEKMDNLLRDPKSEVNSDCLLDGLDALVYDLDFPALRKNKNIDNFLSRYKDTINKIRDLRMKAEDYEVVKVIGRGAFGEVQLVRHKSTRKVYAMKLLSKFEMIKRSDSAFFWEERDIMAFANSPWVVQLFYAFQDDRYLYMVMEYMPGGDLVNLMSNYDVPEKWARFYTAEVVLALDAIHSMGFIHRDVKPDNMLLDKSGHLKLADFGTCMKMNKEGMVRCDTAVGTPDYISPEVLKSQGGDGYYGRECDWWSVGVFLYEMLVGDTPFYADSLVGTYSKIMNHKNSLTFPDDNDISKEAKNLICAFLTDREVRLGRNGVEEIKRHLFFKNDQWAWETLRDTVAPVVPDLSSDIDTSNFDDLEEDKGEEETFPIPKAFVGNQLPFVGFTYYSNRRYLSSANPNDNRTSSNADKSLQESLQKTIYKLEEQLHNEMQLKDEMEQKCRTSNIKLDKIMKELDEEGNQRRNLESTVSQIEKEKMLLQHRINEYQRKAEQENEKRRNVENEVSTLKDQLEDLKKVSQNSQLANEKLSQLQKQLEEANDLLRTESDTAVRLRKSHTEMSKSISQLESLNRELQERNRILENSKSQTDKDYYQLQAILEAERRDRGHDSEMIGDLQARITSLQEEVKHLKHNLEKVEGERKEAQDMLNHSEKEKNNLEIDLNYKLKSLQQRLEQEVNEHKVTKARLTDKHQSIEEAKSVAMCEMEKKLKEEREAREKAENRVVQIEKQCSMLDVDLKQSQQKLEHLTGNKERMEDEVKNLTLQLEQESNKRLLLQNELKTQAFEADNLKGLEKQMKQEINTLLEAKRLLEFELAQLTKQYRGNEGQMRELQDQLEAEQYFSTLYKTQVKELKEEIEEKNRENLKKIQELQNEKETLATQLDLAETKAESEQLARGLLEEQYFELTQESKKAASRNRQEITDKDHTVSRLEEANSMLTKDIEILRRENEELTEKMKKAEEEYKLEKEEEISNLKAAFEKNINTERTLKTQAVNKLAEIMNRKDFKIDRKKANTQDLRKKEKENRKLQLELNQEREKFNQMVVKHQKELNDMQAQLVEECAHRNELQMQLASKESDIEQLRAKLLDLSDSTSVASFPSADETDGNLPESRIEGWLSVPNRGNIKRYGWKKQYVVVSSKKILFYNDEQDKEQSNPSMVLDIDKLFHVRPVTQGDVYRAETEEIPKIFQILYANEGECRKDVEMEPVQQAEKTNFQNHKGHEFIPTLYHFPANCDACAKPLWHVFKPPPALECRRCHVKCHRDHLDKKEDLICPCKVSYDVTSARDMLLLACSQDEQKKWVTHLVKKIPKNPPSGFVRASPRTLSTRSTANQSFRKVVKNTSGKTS

[10] = target: Serine/threonine-protein kinase PAK 4 (Homo sapiens) (UniProt O96013); assay: Inhibition of PAK4 at 10 uM by colorimetric analysis
Sequence of Serine/threonine-protein kinase PAK 4 (Homo sapiens) (O96013 whole entry, looked up): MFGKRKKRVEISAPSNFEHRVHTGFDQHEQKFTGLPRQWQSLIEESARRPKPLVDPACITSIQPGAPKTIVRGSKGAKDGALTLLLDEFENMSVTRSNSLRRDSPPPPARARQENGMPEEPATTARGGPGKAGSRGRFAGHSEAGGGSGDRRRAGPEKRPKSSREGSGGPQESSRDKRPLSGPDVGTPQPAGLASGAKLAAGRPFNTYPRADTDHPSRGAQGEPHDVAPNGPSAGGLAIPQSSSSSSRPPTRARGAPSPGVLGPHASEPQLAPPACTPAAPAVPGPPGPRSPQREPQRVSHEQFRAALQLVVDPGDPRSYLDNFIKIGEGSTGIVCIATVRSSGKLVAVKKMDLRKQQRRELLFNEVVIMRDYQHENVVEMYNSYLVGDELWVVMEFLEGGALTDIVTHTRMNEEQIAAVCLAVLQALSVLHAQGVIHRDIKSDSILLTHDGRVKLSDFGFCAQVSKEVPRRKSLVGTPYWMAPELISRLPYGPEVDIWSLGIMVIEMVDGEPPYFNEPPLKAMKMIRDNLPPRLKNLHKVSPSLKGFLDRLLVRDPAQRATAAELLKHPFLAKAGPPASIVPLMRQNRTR

SMILES	IC50 [1]	inhibition [2]	inhibition [3]	inhibition [4]	inhibition [5]	inhibition [6]	inhibition [7]	inhibition [8]	inhibition [9]	inhibition [10]
Clc1cccc(-n2nncc2-c2ccncc2)c1	4.4 µM	Active	Active	inactive	Active	Active	Active	Active	Active	Active
Clc1cccc(-n2cc(-c3ccncc3)nn2)c1	10.5 µM	Active	Active	inactive	Active	Active	Active	Active	Active	Active
Clc1ccc(-n2cc(-c3ccncc3)nn2)cc1	5.8 µM	Active	Active	inactive	Active	Active	Active	Active	Active	Active
Clc1ccc(-n2nncc2-c2ccncc2)cc1	1.7 µM	Active	Active	inactive	Active	Active	Active	Active	Active	Active
